# US20230111310A1, “CARBOXYLIC ACID DERIVATIVE-SUBSTITUTED IMINO ARYL COMPOUND, PREPARATION METHOD THEREFOR, HERBICIDAL COMPOSITION AND USE THEREOF” (Qingdao Kingagroot Chemical Compound Co., Ltd., priority 2020, published 2023)
# System: Echinochloa crusgalli
# Assay: Weeding effect in post-emergence stage
# Type: in vivo
# Details: Dose 15 g/ha; fresh weight control rate level
# Method in brief: (§1)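 Seeds are sown in soil-filled pots under 0.5-2 cm soil and grown 2 weeks in greenhouse. Plants at 2-3 leaves are sprayed with compound (acetone, Tween 80, 1.5 liter/ha methyl oleate EC, water) at 7.5 to 500 g/ha. Damage is rated 3 weeks later, averaging three repeats.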
row,Structure (SMILES),"Weeding effect in post-emergence stage, Echinochloa crusgalli (level)"
1,COC(=O)C(C)ON=Cc1nc(-n2c(=O)cc(C(F)(F)F)n(C)c2=O)c(F)cc1Cl [504(R)],5 (Level 5: growth control rate is above 85%)
2,COC(=O)[C@@H](C)S/N=C/c1cc(-n2c(=O)cc(C(F)(F)F)n(C)c2=O)c(F)cc1Cl [730(R)],5 (Level 5: growth control rate is above 85%)

# Same assay, conditions: Dose 15 g/ha; level of fresh weight growth control rate
row,Structure (SMILES),"Weeding effect in post-emergence stage, Echinochloa crusgalli"
1,CC(C)=NOC(=O)C(C)O/N=C/c1cc(-n2c(=O)n(C)c(=S)n(C)c2=O)c(F)cc1Cl (stereo not drawn) [Compound 20],5 (Level 5: growth control rate is above 85%)
2,CC(O/N=C/c1cc(-n2c(=O)n(C)c(=S)n(C)c2=O)c(F)cc1Cl)C(=O)OCC1CCCO1 (stereo not drawn) [Compound 24],5 (Level 5: growth control rate is above 85%)
3,CC(O/N=C/c1cc(-n2c(=O)n(C)c(=S)n(C)c2=O)c(F)cc1Cl)C(=O)OCc1ccco1 (stereo not drawn) [Compound 26],5 (Level 5: growth control rate is above 85%)
4,CC(O/N=C/c1cc(-n2c(=O)n(C)c(=S)n(C)c2=O)c(F)cc1Cl)C(=O)OCc1ccccc1 (stereo not drawn) [Compound 42],5 (Level 5: growth control rate is above 85%)

# Same assay, conditions: Dose 30 g/ha; fresh weight control rate level
row,Structure (SMILES),"Weeding effect in post-emergence stage, Echinochloa crusgalli (level)"
1,COC(=O)[C@@H](C)O/N=C/c1cc(-n2c(=O)c(C)c(C(F)(F)F)n(C)c2=O)c(F)cc1Cl [473(R)],5 (Level 5: growth control rate is above 85%)
2,COC(=O)[C@@H](C)N/N=C/c1cc(-n2c(=O)cc(C(F)(F)F)n(C)c2=O)c(F)cc1Cl [919(R)],5 (Level 5: growth control rate is above 85%)

# System: Digitaria sanguinalis
# Assay: Weeding effect in post-emergence stage
# Type: in vivo
# Details: Dose 15 g/ha; fresh weight control rate level
# Method in brief: as §1
row,Structure (SMILES),"Weeding effect in post-emergence stage, Digitaria sanguinalis (level)"
1,COC(=O)C(C)ON=Cc1nc(-n2c(=O)cc(C(F)(F)F)n(C)c2=O)c(F)cc1Cl [504(R)],5 (Level 5: growth control rate is above 85%)
2,COC(=O)[C@@H](C)S/N=C/c1cc(-n2c(=O)cc(C(F)(F)F)n(C)c2=O)c(F)cc1Cl [730(R)],5 (Level 5: growth control rate is above 85%)

# Same assay, conditions: Dose 15 g/ha; level of fresh weight growth control rate
row,Structure (SMILES),"Weeding effect in post-emergence stage, Digitaria sanguinalis"
1,CC(C)=NOC(=O)C(C)O/N=C/c1cc(-n2c(=O)n(C)c(=S)n(C)c2=O)c(F)cc1Cl (stereo not drawn) [Compound 20],5 (Level 5: growth control rate is above 85%)
2,CC(O/N=C/c1cc(-n2c(=O)n(C)c(=S)n(C)c2=O)c(F)cc1Cl)C(=O)OCC1CCCO1 (stereo not drawn) [Compound 24],5 (Level 5: growth control rate is above 85%)
3,CC(O/N=C/c1cc(-n2c(=O)n(C)c(=S)n(C)c2=O)c(F)cc1Cl)C(=O)OCc1ccco1 (stereo not drawn) [Compound 26],5 (Level 5: growth control rate is above 85%)
4,CC(O/N=C/c1cc(-n2c(=O)n(C)c(=S)n(C)c2=O)c(F)cc1Cl)C(=O)OCc1ccccc1 (stereo not drawn) [Compound 42],5 (Level 5: growth control rate is above 85%)

# Same assay, conditions: Dose 30 g/ha; fresh weight control rate level
row,Structure (SMILES),"Weeding effect in post-emergence stage, Digitaria sanguinalis (level)"
1,COC(=O)[C@@H](C)O/N=C/c1cc(-n2c(=O)c(C)c(C(F)(F)F)n(C)c2=O)c(F)cc1Cl [473(R)],5 (Level 5: growth control rate is above 85%)
2,COC(=O)[C@@H](C)N/N=C/c1cc(-n2c(=O)cc(C(F)(F)F)n(C)c2=O)c(F)cc1Cl [919(R)],5 (Level 5: growth control rate is above 85%)

# System: Setaria viridis
# Assay: Weeding effect in post-emergence stage
# Type: in vivo
# Details: Dose 15 g/ha; fresh weight control rate level
# Method in brief: as §1
row,Structure (SMILES),"Weeding effect in post-emergence stage, Setaria viridis (level)"
1,COC(=O)C(C)ON=Cc1nc(-n2c(=O)cc(C(F)(F)F)n(C)c2=O)c(F)cc1Cl [504(R)],5 (Level 5: growth control rate is above 85%)
2,COC(=O)[C@@H](C)S/N=C/c1cc(-n2c(=O)cc(C(F)(F)F)n(C)c2=O)c(F)cc1Cl [730(R)],5 (Level 5: growth control rate is above 85%)

# Same assay, conditions: Dose 15 g/ha; level of fresh weight growth control rate
row,Structure (SMILES),"Weeding effect in post-emergence stage, Setaria viridis"
1,CC(C)=NOC(=O)C(C)O/N=C/c1cc(-n2c(=O)n(C)c(=S)n(C)c2=O)c(F)cc1Cl (stereo not drawn) [Compound 20],5 (Level 5: growth control rate is above 85%)
2,CC(O/N=C/c1cc(-n2c(=O)n(C)c(=S)n(C)c2=O)c(F)cc1Cl)C(=O)OCC1CCCO1 (stereo not drawn) [Compound 24],5 (Level 5: growth control rate is above 85%)
3,CC(O/N=C/c1cc(-n2c(=O)n(C)c(=S)n(C)c2=O)c(F)cc1Cl)C(=O)OCc1ccco1 (stereo not drawn) [Compound 26],5 (Level 5: growth control rate is above 85%)
4,CC(O/N=C/c1cc(-n2c(=O)n(C)c(=S)n(C)c2=O)c(F)cc1Cl)C(=O)OCc1ccccc1 (stereo not drawn) [Compound 42],5 (Level 5: growth control rate is above 85%)

# Same assay, conditions: Dose 30 g/ha; fresh weight control rate level
row,Structure (SMILES),"Weeding effect in post-emergence stage, Setaria viridis (level)"
1,COC(=O)[C@@H](C)O/N=C/c1cc(-n2c(=O)c(C)c(C(F)(F)F)n(C)c2=O)c(F)cc1Cl [473(R)],5 (Level 5: growth control rate is above 85%)
2,COC(=O)[C@@H](C)N/N=C/c1cc(-n2c(=O)cc(C(F)(F)F)n(C)c2=O)c(F)cc1Cl [919(R)],5 (Level 5: growth control rate is above 85%)

# System: Alopecurus japonicus
# Assay: Weeding effect in post-emergence stage
# Type: in vivo
# Details: Dose 15 g/ha; fresh weight control rate level
# Method in brief: as §1
row,Structure (SMILES),"Weeding effect in post-emergence stage, Alopecurus japonicus (level)"
1,COC(=O)C(C)ON=Cc1nc(-n2c(=O)cc(C(F)(F)F)n(C)c2=O)c(F)cc1Cl [504(R)],5 (Level 5: growth control rate is above 85%)
2,COC(=O)[C@@H](C)S/N=C/c1cc(-n2c(=O)cc(C(F)(F)F)n(C)c2=O)c(F)cc1Cl [730(R)],5 (Level 5: growth control rate is above 85%)

# Same assay, conditions: Dose 15 g/ha; level of fresh weight growth control rate
row,Structure (SMILES),"Weeding effect in post-emergence stage, Alopecurus japonicus"
1,CC(C)=NOC(=O)C(C)O/N=C/c1cc(-n2c(=O)n(C)c(=S)n(C)c2=O)c(F)cc1Cl (stereo not drawn) [Compound 20],5 (Level 5: growth control rate is above 85%)
2,CC(O/N=C/c1cc(-n2c(=O)n(C)c(=S)n(C)c2=O)c(F)cc1Cl)C(=O)OCC1CCCO1 (stereo not drawn) [Compound 24],5 (Level 5: growth control rate is above 85%)
3,CC(O/N=C/c1cc(-n2c(=O)n(C)c(=S)n(C)c2=O)c(F)cc1Cl)C(=O)OCc1ccco1 (stereo not drawn) [Compound 26],5 (Level 5: growth control rate is above 85%)
4,CC(O/N=C/c1cc(-n2c(=O)n(C)c(=S)n(C)c2=O)c(F)cc1Cl)C(=O)OCc1ccccc1 (stereo not drawn) [Compound 42],4 (Level 4: growth control rate is greater than or equal to 60% and less than 85%)

# Same assay, conditions: Dose 30 g/ha; fresh weight control rate level
row,Structure (SMILES),"Weeding effect in post-emergence stage, Alopecurus japonicus (level)"
1,COC(=O)[C@@H](C)O/N=C/c1cc(-n2c(=O)c(C)c(C(F)(F)F)n(C)c2=O)c(F)cc1Cl [473(R)],5 (Level 5: growth control rate is above 85%)
2,COC(=O)[C@@H](C)N/N=C/c1cc(-n2c(=O)cc(C(F)(F)F)n(C)c2=O)c(F)cc1Cl [919(R)],5 (Level 5: growth control rate is above 85%)

# System: Abutilon theophrasti
# Assay: Weeding effect in post-emergence stage
# Type: in vivo
# Details: Dose 15 g/ha; fresh weight control rate level
# Method in brief: as §1
row,Structure (SMILES),"Weeding effect in post-emergence stage, Abutilon theophrasti (level)"
1,COC(=O)C(C)ON=Cc1nc(-n2c(=O)cc(C(F)(F)F)n(C)c2=O)c(F)cc1Cl [504(R)],5 (Level 5: growth control rate is above 85%)
2,COC(=O)[C@@H](C)S/N=C/c1cc(-n2c(=O)cc(C(F)(F)F)n(C)c2=O)c(F)cc1Cl [730(R)],5 (Level 5: growth control rate is above 85%)

# Same assay, conditions: Dose 15 g/ha; level of fresh weight growth control rate
row,Structure (SMILES),"Weeding effect in post-emergence stage, Abutilon theophrasti"
1,CC(C)=NOC(=O)C(C)O/N=C/c1cc(-n2c(=O)n(C)c(=S)n(C)c2=O)c(F)cc1Cl (stereo not drawn) [Compound 20],5 (Level 5: growth control rate is above 85%)
2,CC(O/N=C/c1cc(-n2c(=O)n(C)c(=S)n(C)c2=O)c(F)cc1Cl)C(=O)OCC1CCCO1 (stereo not drawn) [Compound 24],5 (Level 5: growth control rate is above 85%)
3,CC(O/N=C/c1cc(-n2c(=O)n(C)c(=S)n(C)c2=O)c(F)cc1Cl)C(=O)OCc1ccco1 (stereo not drawn) [Compound 26],5 (Level 5: growth control rate is above 85%)
4,CC(O/N=C/c1cc(-n2c(=O)n(C)c(=S)n(C)c2=O)c(F)cc1Cl)C(=O)OCc1ccccc1 (stereo not drawn) [Compound 42],5 (Level 5: growth control rate is above 85%)

# Same assay, conditions: Dose 30 g/ha; fresh weight control rate level
row,Structure (SMILES),"Weeding effect in post-emergence stage, Abutilon theophrasti (level)"
1,COC(=O)[C@@H](C)O/N=C/c1cc(-n2c(=O)c(C)c(C(F)(F)F)n(C)c2=O)c(F)cc1Cl [473(R)],5 (Level 5: growth control rate is above 85%)
2,COC(=O)[C@@H](C)N/N=C/c1cc(-n2c(=O)cc(C(F)(F)F)n(C)c2=O)c(F)cc1Cl [919(R)],5 (Level 5: growth control rate is above 85%)

# System: Eleusine indica
# Assay: Weeding effect in post-emergence stage
# Type: in vivo
# Details: Dose 15 g/ha; fresh weight control rate level
# Method in brief: as §1
row,Structure (SMILES),"Weeding effect in post-emergence stage, Eleusine indica (level)"
1,COC(=O)C(C)ON=Cc1nc(-n2c(=O)cc(C(F)(F)F)n(C)c2=O)c(F)cc1Cl [504(R)],5 (Level 5: growth control rate is above 85%)
2,COC(=O)[C@@H](C)S/N=C/c1cc(-n2c(=O)cc(C(F)(F)F)n(C)c2=O)c(F)cc1Cl [730(R)],5 (Level 5: growth control rate is above 85%)

# Same assay, conditions: Dose 15 g/ha; level of fresh weight growth control rate
row,Structure (SMILES),"Weeding effect in post-emergence stage, Eleusine indica"
1,CC(C)=NOC(=O)C(C)O/N=C/c1cc(-n2c(=O)n(C)c(=S)n(C)c2=O)c(F)cc1Cl (stereo not drawn) [Compound 20],5 (Level 5: growth control rate is above 85%)
2,CC(O/N=C/c1cc(-n2c(=O)n(C)c(=S)n(C)c2=O)c(F)cc1Cl)C(=O)OCC1CCCO1 (stereo not drawn) [Compound 24],5 (Level 5: growth control rate is above 85%)
3,CC(O/N=C/c1cc(-n2c(=O)n(C)c(=S)n(C)c2=O)c(F)cc1Cl)C(=O)OCc1ccco1 (stereo not drawn) [Compound 26],5 (Level 5: growth control rate is above 85%)
4,CC(O/N=C/c1cc(-n2c(=O)n(C)c(=S)n(C)c2=O)c(F)cc1Cl)C(=O)OCc1ccccc1 (stereo not drawn) [Compound 42],5 (Level 5: growth control rate is above 85%)

# Same assay, conditions: Dose 30 g/ha; fresh weight control rate level
row,Structure (SMILES),"Weeding effect in post-emergence stage, Eleusine indica (level)"
1,COC(=O)[C@@H](C)O/N=C/c1cc(-n2c(=O)c(C)c(C(F)(F)F)n(C)c2=O)c(F)cc1Cl [473(R)],5 (Level 5: growth control rate is above 85%)
2,COC(=O)[C@@H](C)N/N=C/c1cc(-n2c(=O)cc(C(F)(F)F)n(C)c2=O)c(F)cc1Cl [919(R)],5 (Level 5: growth control rate is above 85%)
